In patent publication US4112218A, “Method of preparing sterol glycosides from plants” (Nippon Shinyaku Co., Ltd., priority 1976, dated 1978):
Where two headings read alike, the source gives them in different places.

Assays:
pulmonary hemorrhage = pulmonary hemorrhage in mice under reduced pressure (scoring method; vascular stabilizing effect); format: in vivo; conditions: Mus musculus, reduced pressure of 50 ± 0.5 mm Hg/15 sec
[1] = test system: bleeding from the amputated tail end; assay: hemostatic effect, Motohashi et al. model: time until bleeding from amputated mouse tail tip in water is completely stopped; format: in vivo; conditions: mice, tail tip amputation

For `CN1C2=CC(=O)C(=NNC(N)=O)C=C2CC1S(=O)(=O)O` (stereo not drawn) [Carbazochrome sodium sulfonate], the ED50 (pulmonary hemorrhage; ip, read-out: ED50 i.p. (pulmonary hemorrhage)) was 112 mg/kg, the ED50 (pulmonary hemorrhage; iv, read-out: ED50 i.v. (pulmonary hemorrhage)) was 80 mg/kg and the ED50 (pulmonary hemorrhage; po, read-out: ED50 p.o. (pulmonary hemorrhage)) was 400 mg/kg. For the same compound, the ED50 ([1]; ip, read-out: ED50 i.p. (hemostatic effect)) was 5.4 mg/kg, the ED50 ([1]; iv, read-out: ED50 i.v. (hemostatic effect)) was 3.6 mg/kg and the ED50 ([1]; po, read-out: ED50 p.o. (hemostatic effect)) was 36 mg/kg.
